Experimental data from US20230121086A1, “RORgT INHIBITOR, PREPARATION METHOD THEREOF AND USE THEREOF” (SUNSHINE LAKE PHARMA CO., LTD., priority 2020, published 2023).

target: T1, RORγt (Homo sapiens, UniProt P51449); experiment: Fluorescence resonance energy transfer (FRET) test, inhibitory activity of RORγt; type: biochemical; conditions: FRET, B-RORγt LBD / Biotin-SRC1; read-out: IC50
T1 construct: […]
T1 sequence (P51449 269-508 limits assumed): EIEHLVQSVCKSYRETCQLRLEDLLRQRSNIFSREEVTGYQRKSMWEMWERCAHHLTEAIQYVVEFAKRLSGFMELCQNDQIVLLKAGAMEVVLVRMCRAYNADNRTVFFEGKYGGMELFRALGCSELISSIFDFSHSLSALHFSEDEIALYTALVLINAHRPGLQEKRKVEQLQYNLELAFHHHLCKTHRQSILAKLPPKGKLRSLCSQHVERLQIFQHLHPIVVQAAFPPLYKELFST

IC50 [nM]	SMILES
27	CCS(=O)(=O)c1ccc([C@H](CC#N)NC(=O)c2ccc(N3C[C@@H](Oc4ccc(OC(F)(F)F)nc4)C[C@H]3COC(F)F)cc2)cc1 [Example 11, N-((S)-2-cyano-1-(4-(ethylsulfonyl)phenyl)ethyl)-4-((2S,4S)-2-((difluoromethoxy)methyl)-4-((6-(trifluoromethoxy)pyridin-3-yl)oxy)pyrrolidin-1-yl)benzamide]
21.5	CCS(=O)(=O)c1ccc([C@@H](CC#N)NC(=O)c2ccc(N3C[C@@H](Oc4ccc(OC(F)F)cc4)C[C@H]3COC(F)F)cc2)cc1 [Example 12, N-((R)-2-cyano-1-(4-(ethylsulfonyl)phenyl)ethyl)-4-((2S,4S)-2-((difluoromethoxy)methyl)-4-(4-(difluoromethoxy)phenoxy)pyrrolidin-1-yl)benzamide]
31.4	CCS(=O)(=O)c1ccc([C@H](CC#N)NC(=O)c2ccc(N3C[C@@H](Oc4ccc(OC(F)F)cc4)C[C@H]3COC(F)F)cc2)nc1 [Example 13, N-((S)-2-cyano-1-(5-(ethylsulfonyl)pyridin-2-yl)ethyl)-4-((2S,4S)-2-((difluoromethoxy)methyl)-4-(4-(difluoromethoxy)phenoxy)pyrrolidin-1-yl)benzamide]
78.7	CCS(=O)(=O)c1ccc([C@H](CC#N)NC(=O)c2ccc(N3C[C@@H](Oc4ccc(C)nc4)C[C@H]3COC(F)F)cc2)cc1 [Example 15, N-((S)-2-cyano-1-(4-(ethylsulfonyl)phenyl)ethyl)-4-((2S,4S)-2-((difluoromethoxy)methyl)-4-((6-methylpyridin-3-yl)oxy)pyrrolidin-1-yl)benzamide]
14.9	CCS(=O)(=O)c1ccc([C@@H](CC#N)NC(=O)c2ccc(N3C[C@@H](Oc4ccc(OC(F)(F)F)cn4)C[C@H]3COC(F)F)cc2)cc1 [Example 17, N-((R)-2-cyano-1-(4-(ethylsulfonyl)phenyl)ethyl)-4-((2S,4S)-2-((difluoromethoxy)methyl)-4-((5-(trifluoromethoxy)pyridin-2-yl)oxy)pyrrolidin-1-yl)benzamide]
25.9	CCS(=O)(=O)c1ccc([C@H](CC#N)NC(=O)c2ccc(N3C[C@@H](Oc4ccc(OC(F)(F)F)cn4)C[C@H]3COC(F)F)nc2)cc1 [Example 18]
30	CCS(=O)(=O)c1ccc([C@H](CC#N)NC(=O)c2ccc(N3C[C@@H](Oc4ccc(OC(C)C)nc4)C[C@H]3COC(F)F)cc2)cc1 [Example 20, N-((S)-2-cyano-1-(4-(ethylsulfonyl)phenyl)ethyl)-4-((2S,4S)-2-((difluoromethoxy)methyl)-4-((6-isopropoxypyridin-3-yl)oxy)pyrrolidin-1-yl)benzamide]
2	CCS(=O)(=O)c1ccc([C@H](CC#N)NC(=O)c2ccc(N3C[C@@H](Oc4ccc(Cl)cc4)C[C@H]3COC(F)F)cc2)cc1 [Example 21, 4-((2S)-4-(4-chlorophenoxy)-2-((difluoromethoxy)methyl)pyrrolidin-1-yl)-N-((S)-2-cyano-1-(4-(ethylsulfonyl)phenyl)ethyl)benzamide]
19	CCS(=O)(=O)c1ccc([C@H](CC#N)NC(=O)c2ccc(N3C[C@@H](Oc4ccc(C#N)cc4)C[C@H]3COC(F)F)cc2)cc1 [Example 24, N-((S)-2-cyano-1-(4-(ethylsulfonyl)phenyl)ethyl)-4-((2S,4S)-4-(4-cyanophenoxy)-2-((difluoromethoxy)methyl)pyrrolidin-1-yl)benzamide]
66	CCS(=O)(=O)c1ccc([C@H](CC#N)NC(=O)c2ccc(N3C[C@@H](Oc4ccc(C(N)=O)cc4)C[C@H]3COC(F)F)cc2)cc1 [Example 25, 4-((2S,4S)-4-(4-carbamoylphenoxy)-2-((difluoromethoxy)methyl)pyrrolidin-1-yl)-N-((S)-2-cyano-1-(4-(ethylsulfonyl)phenyl)ethyl)benzamide]
23	CCS(=O)(=O)c1ccc([C@H](CC#N)NC(=O)c2ccc(N3C[C@@H](Oc4ccc(C(O)(C(F)(F)F)C(F)(F)F)cc4)C[C@H]3COC(F)F)cc2)cc1 [Example 26, N-((S)-2-cyano-1-(4-(ethylsulfonyl)phenyl)ethyl)-4-((2S,4S)-2-((difluoromethoxy)methyl)-4-(4-(1,1,1,3,3,3-hexafluoro-2-hydroxypropan-2-yl)phenoxy)pyrrolidin-1-yl)benzamide]
24	CCS(=O)(=O)c1ccc([C@H](CC#N)NC(=O)c2ccc(N3C[C@@H](Oc4ccc(F)cc4)C[C@H]3COC(F)F)cc2)cc1 [Example 28, N-((S)-2-cyano-1-(4-(ethylsulfonyl)phenyl)ethyl)-4-((2S,4S)-2-((difluoromethoxy)methyl)-4-(4-fluorophenoxy)pyrrolidin-1-yl)benzamide]
59.8	CCS(=O)(=O)c1ccc([C@H](CC#N)NC(=O)c2ccc(N3C[C@H](NCC4CCC(F)(F)CC4)C[C@H]3COC(F)F)cc2)cc1 [Example 31]
61.1	CCS(=O)(=O)c1ccc([C@H](CC#N)NC(=O)c2ccc(N3C[C@H](N(C)CC4CCC(F)(F)CC4)C[C@H]3COC(F)F)cc2)cc1 [Example 32]
67.5	CCS(=O)(=O)c1ccc([C@H](CC#N)NC(=O)c2ccc(N3C[C@@H](OCc4ccc(OC(F)(F)F)cc4)C[C@H]3COC(F)F)cc2)cc1 [Example 39, N—((S)-2-cyano-1-(4-(ethylsulfonyl)phenyl)ethyl)-4-((2S,4S)-2-((difluoromethoxy)methyl)-4-((4-(trifluoromethoxy)benzyl)oxy)pyrrolidin-1-yl)benzamide]
21	CCS(=O)(=O)c1ccc([C@H](CC#N)NC(=O)c2ccc(N3C[C@@H](Oc4ccc(C5CC5)cn4)C[C@H]3COC(F)F)cc2)cc1 [Example 40, N—((S)-2-cyano-1-(4-(ethylsulfonyl)phenyl)ethyl)-4-((2S,4S)-4-((5-cyclopropylpyridin-2-yl)oxy)-2-((difluoromethoxy)methyl)pyrrolidin-1-yl)benzamide]
17	CCS(=O)(=O)c1ccc([C@H](CC#N)NC(=O)c2ccc(N3C[C@@H](Oc4ccc(OC)cn4)C[C@H]3COC(F)F)cc2)cc1 [Example 41, N—((S)-2-cyano-1-(4-(ethylsulfonyl)phenyl)ethyl)-4-((2S,4S)-2-((difluoromethoxy)methyl)-4-((5-methoxypyridin-2-yl)oxy)pyrrolidin-1-yl)benzamide]
43	CCS(=O)(=O)c1ccc([C@H](CC#N)NC(=O)c2ccc(N3C[C@@H](Oc4ccc(-n5cnc(C)c5)cc4)C[C@H]3COC(F)F)cc2)cc1 [Example 45, N—((S)-2-cyano-1-(4-(ethylsulfonyl)phenyl)ethyl)-4-((2S,4S)-2-((difluoromethoxy)methyl)-4-(4-(4-methyl-1H-imidazol-1-yl)phenoxy)pyrrolidin-1-yl)benzamide]
22	CS(=O)(=O)c1ccc([C@H](CC#N)NC(=O)c2ccc(N3C[C@@H](Oc4ccc(C(F)(F)F)cc4)C[C@H]3COC(F)F)cc2)cc1 [Example 62, N-((S)-2-cyano-1-(4-(methylsulfonyl)phenyl)ethyl)-4-((2S,4S)-2-((difluoromethoxy)methyl)-4-(4-(trifluoromethyl)phenoxy)pyrrolidin-1-yl)benzamide]
33	CCS(=O)(=O)c1ccc([C@H](CC#N)NC(=O)c2ccc(N3C[C@@H](Oc4ccc(C(F)(F)F)cc4)C[C@H]3COC(F)F)c(Cl)c2)cc1 [Example 66, 3-chloro-N-((S)-2-cyano-1-(4-(ethylsulfonyl)phenyl)ethyl)-4-((2S,4S)-2-((difluoromethoxy)methyl)-4-(4-(trifluoromethyl)phenoxy)pyrrolidin-1-yl)benzamide]
10	CCS(=O)(=O)c1ccc([C@H](CC#N)NC(=O)c2ccc(N3C[C@@H](Oc4ccc(C(F)(F)F)cc4)C[C@H]3CCOC(F)F)cc2)cc1 [Example 75, N—((S)-2-cyano-1-(4-(ethylsulfonyl)phenyl)ethyl)-4-((2R,4S)-2-(2-(difluoromethoxy)ethyl)-4-(4-(trifluoromethyl)phenoxy)pyrrolidin-1-yl)benzamide]
18	CCS(=O)(=O)c1ccc([C@H](CC#N)NC(=O)c2ccc(N3C[C@@H](Oc4ccc(C(F)(F)F)cc4)C[C@H]3CCOC(F)(F)F)cc2)cc1 [Example 76, N—((S)-2-cyano-1-(4-(ethylsulfonyl)phenyl)ethyl)-4-((2R,4S)-2-(2-(trifluoromethoxy)ethyl)-4-(4-(trifluoromethyl)phenoxy)pyrrolidin-1-yl)benzamide]
7	CCOC[C@@H]1C[C@H](Oc2ccc(C(F)(F)F)cc2)CN1c1ccc(C(=O)N[C@H](CC#N)c2ccc(S(=O)(=O)CC)cc2)cc1 [Example 77, N—((R)-2-cyano-1-(4-(ethylsulfonyl)phenyl)ethyl)-4-((2S,4S)-2-(ethoxymethyl)-4-(4-(trifluoromethyl)phenoxy)-1-pyrrolidine)benzamide]
12	CCS(=O)(=O)c1ccc([C@H](CC#N)NC(=O)c2ccc(N3C[C@@H](Oc4ccc5c(c4)OC(F)(F)O5)C[C@H]3COC(F)F)cc2)cc1 [Example 78, N—((S)-2-cyano-1-(4-(ethylsulfonyl)phenyl)ethyl)-4-((2S,4S)-4-((2,2-difluorobenzo[d][1,3]dioxol-5-yl)oxy)-2-((difluoromethoxy)methyl)pyrrolidin-1-yl)-benzamide]
14	CCS(=O)(=O)c1ccc([C@H](CC#N)NC(=O)c2ccc(N3C[C@@H](OC4CCC(C(F)(F)F)CC4)C[C@H]3COC(F)F)cc2)cc1 (stereo partly drawn) [Example 89, N—((S)-2-cyano-1-(4-(ethylsulfonyl)phenyl)ethyl)-4-((2S)-2-((difluoromethoxy)methyl)-4-((4-(trifluoromethyl)cyclohexyl)oxy)pyrrolidin-1-yl)benzamide]
9	CCS(=O)(=O)c1ccc([C@H](COCC(=O)O)NC(=O)c2ccc(N3C[C@@H](Oc4ccc(C(F)(F)F)cc4)C[C@H]3COC(F)F)cc2)cc1 [Example 90, 2-((R)-2-(4-((2S,4S)-2-((difluoromethoxy)methyl)-4-(4-(trifluoromethyl)phenoxy)pyrrolidin-1-yl)benzoylamino)-2-(4-(ethylsulfonyl)phenyl)ethoxy)acetic Acid]
